Data from ChEMBL document CHEMBL1132634, “Bound structures of novel P3-P1' beta-strand mimetic inhibitors of thrombin” (J Med Chem, 1999).

What was measured:
[1] = target: T1, Prothrombin (Homo sapiens, UniProt P00734)
Description: Binding rate constant towards thrombin was determined

[2] = target: T1, Prothrombin; assay: Binding affinity towards thrombin was determined

SMILES | k on [1] [M⁻¹ s⁻¹] | Ki [2] [nM]
N=C(N)NCCC[C@H](NC(=O)[C@@H]1CCN2CC[C@@](N)(Cc3ccccc3)C(=O)N12)C(=O)C(=O)NCCc1ccccc1 | 640000 | –
N=C(N)NCCC[C@H](NC(=O)[C@@H]1CC[C@@H]2CC[C@@](N)(Cc3ccccc3)C(=O)N21)C(=O)c1nc2ccccc2s1 | – | 0.65
NCCCC[C@H](NC(=O)[C@@H]1CCN2CC[C@@](N)(Cc3ccccc3)C(=O)N12)C(=O)C(=O)NC1CCCCC1 | 1e+06 | –
